Measured values reported in patent US12295970B2, “Imidazoquinoline compounds and prodrugs thereof” (UNIVERSITY OF KANSAS, priority 2019, dated 2025).

Legend:
Assay type in all cases: cell-based
[1] = tested on: canine peripheral blood mononuclear cells (cPBMCs); assay: Cytokine production in canine PBMCs by ELISA (Example 2); conditions: for Cytokine IFNg / Cytokine IL-2 / Cytokine IL-6 / Cytokine IL-10 / Cytokine IL-12 / Cytokine TNFa: ± SD, 29 hours, ELISA, triplicate
Procedure: The imidazoquinolines were further screened for cytokine production in canine peripheral blood mononuclear cells (cPBMCs). […] TNFα and IL-12 were chosen as they are typically seen in a Th-1 cytokine response.
Peripheral blood from a healthy canine donor was obtained with appropriate informed consent of the owner and under approved institutional guidelines. Blood (8 mL per tube) was drawn via sterile venipuncture into a BD Vacutainer cell preparation tube containing sodium heparin (BD Biosciences). PBMCs were isolated within one hour following procurement by density gradient centrifugation according to the manufacturer protocol and resuspended to 2.22×10^6 cells/mL in sterile RPMI 1640 medium with L-glutamine (Gibco) supplemented with 100 U/mL penicillin, 100 μg/mL streptomycin (Corning) and 10% (v/v) heat-inactivated Fetalgro (RMBIO). Corning 3917, 96-well tissue culture treated plates were seeded with the PBMC suspension (180 μL/well), 20 μL of the serially diluted TLR agonists were added in triplicate to yield the desired concentrations in a 1% (v/v) DMSO cell suspension. Cells were incubated at 37° C. in 5% CO2 for 9 hours (FIGS. 3A-3D) or 29 hours (Table 2) after which supernatants were removed and frozen at −80° C. Cytokine secretion levels were measured by ELISA (Duoset, R&D Systems) according to the manufacturer protocol. Samples and standards (n=3) were thawed and plated onto a Maxisorp flat-bottom, 384-well plate (Thermo Scientific) using a BioTek Precision XS pipetting system. Cytokine concentrations were determined by a hyperbolic or four-parameter logistic non-linear regression of the recombinant standards and subsequent interpolation using Graphpad Prism 7.0.

[2] = molecular target: T1, hTLR8 (Homo sapiens, UniProt Q9NR97); assay: SEAP reporter assay for hTLR-8 activity (HEK-Blue hTLR8 cells); conditions: for EC50: ± SD, hTLR8 transfected HEK-Blue cells, Null subtracted, three independent measurements, 12 hours, >100 = no activity observed at 100 μM, read-out: EC50 TLR8
T1 construct: host or cells: HEK293 (HEK-Blue hTLR8)
T1 sequence (Q9NR97 27-1041): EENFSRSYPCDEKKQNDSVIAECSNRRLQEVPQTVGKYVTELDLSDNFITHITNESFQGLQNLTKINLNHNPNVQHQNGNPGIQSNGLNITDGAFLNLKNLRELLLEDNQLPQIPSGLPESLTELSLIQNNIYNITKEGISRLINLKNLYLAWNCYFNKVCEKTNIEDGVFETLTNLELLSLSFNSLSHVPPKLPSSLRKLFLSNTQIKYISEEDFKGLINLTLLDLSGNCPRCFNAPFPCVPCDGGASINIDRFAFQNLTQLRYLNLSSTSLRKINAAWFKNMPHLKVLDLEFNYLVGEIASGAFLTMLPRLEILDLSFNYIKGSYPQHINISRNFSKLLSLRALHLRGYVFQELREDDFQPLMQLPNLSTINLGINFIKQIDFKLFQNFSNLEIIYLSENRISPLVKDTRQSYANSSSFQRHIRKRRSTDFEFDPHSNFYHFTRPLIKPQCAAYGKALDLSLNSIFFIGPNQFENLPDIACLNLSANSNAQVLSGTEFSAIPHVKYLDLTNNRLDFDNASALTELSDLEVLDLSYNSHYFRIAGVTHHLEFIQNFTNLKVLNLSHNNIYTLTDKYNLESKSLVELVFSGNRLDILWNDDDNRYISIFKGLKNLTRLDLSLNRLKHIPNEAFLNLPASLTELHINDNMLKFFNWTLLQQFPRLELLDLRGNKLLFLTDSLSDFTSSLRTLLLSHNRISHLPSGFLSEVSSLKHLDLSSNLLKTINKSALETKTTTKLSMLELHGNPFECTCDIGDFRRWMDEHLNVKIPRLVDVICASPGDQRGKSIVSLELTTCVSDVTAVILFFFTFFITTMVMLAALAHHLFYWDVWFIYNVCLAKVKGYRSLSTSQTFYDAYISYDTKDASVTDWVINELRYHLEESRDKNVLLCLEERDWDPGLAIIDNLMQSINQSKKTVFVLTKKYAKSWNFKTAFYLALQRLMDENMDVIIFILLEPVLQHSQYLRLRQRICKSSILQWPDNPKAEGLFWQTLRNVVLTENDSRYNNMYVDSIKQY
Procedure: (§1) TLR activation induces NF-κB production and subsequent SEAP secretion, which is measured using HEK-Detection media (InvivoGen) containing a colorimetric substrate for SEAP (UV-Vis, 637 nm).
(§2) The experiments followed manufacturer protocol as follows: SEAP levels were measured via absorbance at 637 nm using HEK-Blue Detection cell culture medium (InvivoGen), which contains a SEAP-specific colorimetric substrate. Compound stock solutions were first diluted in sterile DMSO at a concentration of 10 mM. Lower concentrations were prepared by serial dilution of the initial 10 mM stock samples into sterile DMSO and these solutions (22 μL) were subsequently diluted into sterile H2O (198 μL) using a BioTek Precision XS pipetting system. HEK-Blue hTLR7, HEK-Blue hTLR8, Null 1−k, and Null 1 cell suspensions in sterile HEK-Blue Detection medium were prepared at a density of 220,000 cells per mL. Clear bottom, 96-well tissue culture treated plates (Corning) were seeded with hTLR7 and Null 1−k or hTLR8 and Null 1 cell suspensions (180 μL/well), after which 20 μL of the various sample concentrations in 10% v/v DMSO/H2O were added (20 μL) in quadruplicate wells to yield the desired testing concentration in 1% v/v DMSO cell suspension. Plates were incubated at 37° C. and 5% CO2 in the dark. Absorbance measurements were taken at 637 nm at 12 hours, 4 replicates per concentration point, per cell line (hTLR7, hTLR8, Null 1−k, Null 1). Three independent measurements on different days were performed for each analog.
(§3) Corresponding well absorbance values for each concentration tested were averaged with respect to days tested, and the average relative NF-κB induction (UV-Vis, 637 nm) of the null cell lines (Null 1-k or Null 1) were subtracted from the respective average TLR expressing cell line (hTLR7 or hTLR8) absorbance averages. […] The three independent, normalized averages for each analog were then pooled, and the data was fit using the Hill-Slope model (GraphPad Prism v7.0) using the non-linear fit from the [Agonist] vs. response—Variable Slope (four parameters) with a hill slope constrained to less than 3.

[3] = molecular target: T2, hTLR7 (Homo sapiens, UniProt Q9NYK1); assay: SEAP reporter assay for hTLR-7 activity (HEK-Blue hTLR7 cells); conditions: for EC50: ± SD, hTLR7 transfected HEK-Blue cells, Null subtracted, three independent measurements, 12 hours, read-out: EC50 TLR7
T2 construct: host or cells: HEK293 (HEK-Blue hTLR7)
T2 sequence (Q9NYK1 27-1049): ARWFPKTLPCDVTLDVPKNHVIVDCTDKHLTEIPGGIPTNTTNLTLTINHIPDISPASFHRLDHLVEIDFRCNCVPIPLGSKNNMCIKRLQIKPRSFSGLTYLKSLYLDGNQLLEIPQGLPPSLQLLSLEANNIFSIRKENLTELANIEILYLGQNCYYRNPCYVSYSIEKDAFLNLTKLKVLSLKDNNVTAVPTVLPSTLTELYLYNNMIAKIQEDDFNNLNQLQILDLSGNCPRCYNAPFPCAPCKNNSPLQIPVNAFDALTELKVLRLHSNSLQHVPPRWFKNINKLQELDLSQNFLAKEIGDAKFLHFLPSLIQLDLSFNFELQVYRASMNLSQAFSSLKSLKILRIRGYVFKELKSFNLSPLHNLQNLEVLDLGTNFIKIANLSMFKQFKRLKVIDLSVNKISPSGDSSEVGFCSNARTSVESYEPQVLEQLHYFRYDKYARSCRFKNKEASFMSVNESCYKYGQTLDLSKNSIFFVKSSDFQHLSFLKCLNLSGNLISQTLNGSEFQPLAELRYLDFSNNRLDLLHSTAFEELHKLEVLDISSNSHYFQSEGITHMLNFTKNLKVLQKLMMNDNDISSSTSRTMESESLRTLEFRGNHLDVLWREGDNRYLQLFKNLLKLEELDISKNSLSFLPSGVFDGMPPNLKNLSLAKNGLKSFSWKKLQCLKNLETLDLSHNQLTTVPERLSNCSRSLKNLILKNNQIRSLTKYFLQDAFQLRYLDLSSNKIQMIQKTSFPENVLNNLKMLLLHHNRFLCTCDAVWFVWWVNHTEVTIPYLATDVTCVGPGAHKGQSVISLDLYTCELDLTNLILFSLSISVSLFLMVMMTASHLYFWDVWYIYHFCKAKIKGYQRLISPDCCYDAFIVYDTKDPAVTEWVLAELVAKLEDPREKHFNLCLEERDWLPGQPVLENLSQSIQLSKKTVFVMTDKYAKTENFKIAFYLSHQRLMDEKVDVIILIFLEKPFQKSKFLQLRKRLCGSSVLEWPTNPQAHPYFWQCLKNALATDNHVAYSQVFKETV
Procedure: as §1, §2, §3

For `CCOCc1nc2c(N)nc3cc(C#N)ccc3c2n1CC(C)C` [Compound 11, 4-Amino-7-carbonitrile-2-(ethoxymethyl)-1-(2-methylpropyl)-1H-imidazo[4,5-c]quinoline], the “Cytokine IFNg” value ([1]; 20 μM) was 4 ± 3 pg/mL, the “Cytokine IL-2” value ([1]; 20 μM) was 57 ± 14 pg/mL and the “Cytokine IL-6” value ([1]; 20 μM) was 71 ± 20 pg/mL. The “Cytokine IL-10” value ([1]; 20 μM) was 6 ± 2 pg/mL, the “Cytokine IL-12” value ([1]; 20 μM) was 190 ± 62 pg/mL and the “Cytokine TNFa” value ([1]; 20 μM) was 7 ± 1 pg/mL. It also gave an EC50 [2] greater than 100 µM and an EC50 [3] of 6.8 ± 0.7 µM.
For `CCCCc1nc2c(N)nc3cc(C#N)ccc3c2n1CC(C)C` [Compound 10, 4-Amino-2-butyl-7-carbonitrile-1-(2-methylpropyl)-1H-imidazo[4,5-c]quinoline], the “Cytokine IFNg” value ([1]; 20 μM) was 13 ± 5 pg/mL, the “Cytokine IL-2” value ([1]; 20 μM) was 60 ± 41 pg/mL and the “Cytokine IL-6” value ([1]; 20 μM) was 350 ± 95 pg/mL. For the same compound, the “Cytokine IL-10” value ([1]; 20 μM) was 37 ± 10 pg/mL, the “Cytokine IL-12” value ([1]; 20 μM) was 920 ± 170 pg/mL and the “Cytokine TNFa” value ([1]; 20 μM) was 10 ± 1 pg/mL. The EC50 [2] was greater than 100 µM and the EC50 [3] was 0.99 ± 0.4 µM.
With `CCCCc1nc2c(N)nc3cc(O)ccc3c2n1CC(C)C` [Compound 14, 4-Amino-2-butyl-7-hydroxy-1-(2-methylpropyl)-1H-imidazo[4,5-c]quinoline] the “cytokine induction (in words)” value [1] was “barely potentiates any cytokine induction”, the “IL-12 response (in words)” value ([1]; 20 μM) was “one of the lowest IL-12 responses” and the “TNFα response (in words)” value ([1]; 20 μM) was “one of the highest TNFα responses”. For the same compound, the “Cytokine IFNg” value ([1]; 20 μM) was 9 ± 8 pg/mL, the “Cytokine IL-2” value ([1]; 20 μM) was 79 ± 19 pg/mL and the “Cytokine IL-6” value ([1]; 20 μM) was 330 ± 92 pg/mL. For the same compound, the “Cytokine IL-10” value ([1]; 20 μM) was 17 ± 3 pg/mL, the “Cytokine IL-12” value ([1]; 20 μM) was 102 ± 65 pg/mL and the “Cytokine TNFa” value ([1]; 20 μM) was 270 ± 70 - pg/mL. It also gave an EC50 [3] of 0.073 ± 0.005 µM.
With `CCOCc1nc2c(N)nc3cc(Cl)ccc3c2n1CC(C)C` [Compound 7, 4-Amino-7-chloro-2-(ethoxymethyl)-1-(2-methylpropyl)-1H-imidazo[4,5-c]quinoline] the “Cytokine IFNg” value ([1]; 20 μM) was 5 ± 5 pg/mL, the “Cytokine IL-2” value ([1]; 20 μM) was 50 ± 22 pg/mL and the “Cytokine IL-6” value ([1]; 20 μM) was 280 ± 81 pg/mL. For the same compound, the “Cytokine IL-10” value ([1]; 20 μM) was 20 ± 1 pg/mL, the “Cytokine IL-12” value ([1]; 20 μM) was 781 ± 40 pg/mL and the “Cytokine TNFa” value ([1]; 20 μM) was 114 ± 25 pg/mL. The EC50 [2] was greater than 100 µM and the EC50 [3] was 0.91 ± 0.09 µM.
For `CCCCc1nc2c(N)nc3cc(OC)ccc3c2n1CC(C)(C)O` [Compound 5, 4-Amino-2-butyl-1-(2-hydroxy-2-methylpropyl)-7-methoxy-1H-imidazo[4,5-c]quinoline], the “Cytokine IFNg” value ([1]; 20 μM) was 14.5 ± 6 pg/mL, the “Cytokine IL-2” value ([1]; 20 μM) was 82 ± 56 pg/mL and the “Cytokine IL-6” value ([1]; 20 μM) was 290 ± 63 pg/mL. For the same compound, the “Cytokine IL-10” value ([1]; 20 μM) was 14 ± 2 pg/mL, the “Cytokine IL-12” value ([1]; 20 μM) was 2000 ± 160 pg/mL and the “Cytokine TNFa” value ([1]; 20 μM) was 64 ± 12 pg/mL. For the same compound, the EC50 [2] was 1.7 ± 0.3 µM and the EC50 [3] was 0.081 ± 0.009 µM.
`CC(C)Cn1cnc2c(N)nc3ccccc3c21` [Compound 1, imiquimod, reference compound] was tested, and the “agonist for TLR8 receptor (in words)” value [2] was “agonists”, the EC50 [2] was 25 ± 3 µM and the “agonist for TLR7 receptor (in words)” value [3] was “agonists”. The EC50 [3] was 6.8 ± 0.8 µM.
For `CCOCc1nc2c(N)nc3cc(C#N)ccc3c2n1CC(C)(C)O` [Compound 13, 4-Amino-7-carbonitrile-2-(ethoxymethyl)-1-(2-hydroxy-2-methylpropyl)-1H-imidazo[4,5-c]quinoline], the “Cytokine IFNg” value ([1]; 20 μM) was 0.2 ± 0.4 pg/mL, the “Cytokine IL-2” value ([1]; 20 μM) was 46 ± 42 pg/mL and the “Cytokine IL-6” value ([1]; 20 μM) was 214 ± 69 pg/mL. The “Cytokine IL-10” value ([1]; 20 μM) was 6 ± 3 pg/mL, the “Cytokine IL-12” value ([1]; 20 μM) was 13 ± 3 pg/mL and the “Cytokine TNFa” value ([1]; 20 μM) was 80 ± 20 pg/mL. For the same compound, the EC50 [2] was 27 ± 6 µM and the EC50 [3] was 3.5 ± 0.7 µM.
For `CCCCc1nc2c(N)nc3cc(C#N)ccc3c2n1CC(C)(C)O` [Compound 12, 4-Amino-2-butyl-7-carbonitrile-1-(2-hydroxy-2-methylpropyl)-1H-imidazo[4,5-c]quinoline], the “Cytokine IFNg” value ([1]; 20 μM) was 12 ± 4 pg/mL, the “Cytokine IL-2” value ([1]; 20 μM) was 45 ± 22 pg/mL and the “Cytokine IL-6” value ([1]; 20 μM) was 290 ± 77 pg/mL. The “Cytokine IL-10” value ([1]; 20 μM) was 14 ± 3 pg/mL, the “Cytokine IL-12” value ([1]; 20 μM) was 418 ± 72 pg/mL and the “Cytokine TNFa” value ([1]; 20 μM) was 44 ± 10 pg/mL. The EC50 [2] was 3.9 ± 0.2 µM and the EC50 [3] was 0.79 ± 0.23 µM.
